Results taken from patent publication US12252524B2, “GIP/GLP1 co-agonist compounds” (Eli Lilly and Company, priority 2018, dated 2025).
Numbered stars: 1 amine (or outer) side, 2 acyl side, 3 side chain; on linkers, the order of the positions; unused ones are H or OH. Square brackets hold non-standard residues; d marks the D form. Side chains are listed from the residue outwards. Peptide text beside a SMILES is read from it. * marks the point of attachment. C20 diacid = O=C(O)CCCCCCCCCCCCCCCCCCC(=O)*; αMePhe(2-F) = C[C@](N)(Cc1ccccc1F)C(=O)O; γGlu = O=C(O)[C@H](CCC(=O)[*:2])N[*:1]; 3Pal = N[C@@H](Cc1cccnc1)C(=O)O; αMeL = CC(C)C[C@](C)(N)C(=O)O; AEEA = NCCOCCOCC(=O)O; Aib = CC(C)(N)C(=O)O

How the values were obtained:
[1] = biological target: human GLP-1 receptor (GLP-1R) (Homo sapiens, UniProt P43220); test: cAMP pharmacological functional assay in presence of casein, hGLP-1R; format: cell-based; settings: HEK293 cells expressing hGLP-1R, 0.1% Casein, geometric mean; read-out: hGLP1R cAMP Rel EC50 nM (SEM, n)
[2] = biological target: T1, gastric inhibitory peptide receptor (GIPR) (Homo sapiens, UniProt P48546); test: cAMP pharmacological functional assay in presence of casein, hGIPR; format: cell-based; settings: HEK293 cells expressing hGIPR, 0.1% Casein, geometric mean; read-out: hGIPR cAMP Rel EC50 nM (SEM, n)
T1 sequence (P48546 22-466): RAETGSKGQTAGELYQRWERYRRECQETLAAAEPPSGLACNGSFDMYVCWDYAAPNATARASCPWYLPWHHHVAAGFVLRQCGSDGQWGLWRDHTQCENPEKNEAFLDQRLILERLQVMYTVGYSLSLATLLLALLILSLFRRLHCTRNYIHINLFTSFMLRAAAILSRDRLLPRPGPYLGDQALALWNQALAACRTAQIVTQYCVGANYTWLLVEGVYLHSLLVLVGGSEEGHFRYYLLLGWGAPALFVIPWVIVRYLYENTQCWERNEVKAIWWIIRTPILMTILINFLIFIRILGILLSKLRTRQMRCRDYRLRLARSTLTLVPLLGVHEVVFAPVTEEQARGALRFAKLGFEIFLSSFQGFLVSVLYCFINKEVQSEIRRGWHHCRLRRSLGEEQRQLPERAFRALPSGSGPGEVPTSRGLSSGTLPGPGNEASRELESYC

human GLP-1 receptor (GLP-1R), sequence (P43220 24-463): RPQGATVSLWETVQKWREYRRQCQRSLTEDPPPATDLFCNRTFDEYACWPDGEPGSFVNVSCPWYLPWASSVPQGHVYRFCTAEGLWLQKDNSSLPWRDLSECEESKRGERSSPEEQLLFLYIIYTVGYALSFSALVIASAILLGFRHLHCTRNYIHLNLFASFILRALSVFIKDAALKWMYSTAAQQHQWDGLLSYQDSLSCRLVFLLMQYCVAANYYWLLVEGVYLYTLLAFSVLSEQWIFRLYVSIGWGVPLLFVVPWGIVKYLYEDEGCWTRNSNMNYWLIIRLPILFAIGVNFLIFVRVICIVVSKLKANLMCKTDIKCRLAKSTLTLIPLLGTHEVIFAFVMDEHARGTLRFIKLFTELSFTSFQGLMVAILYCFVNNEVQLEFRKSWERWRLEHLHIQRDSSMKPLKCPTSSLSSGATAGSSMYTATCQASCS

Row | SMILES | EC50 [1] [nM] | EC50 [2] [nM]
1 | CC[C@H](C)[C@H](NC(=O)[C@H](CC(C)C)NC(=O)[C@H](Cc1ccc(O)cc1)NC(=O)[C@H](CCC(=O)O)NC(=O)[C@@H](NC(=O)[C@H](Cc1ccccc1)NC(=O)[C@H](C)NC(=O)C(C)(C)NC(=O)[C@H](CCC(N)=O)NC(=O)[C@H](C)NC(=O)[C@H](CCCCNC(=O)COCCOCCNC(=O)[C@H]1CC[C@H](CNC(=O)CC[C@H](NC(=O)CCCCCCCCCCCCCCCCCCC(=O)O)C(=O)O)CC1)NC(=O)[C@H](CCCCN)NC(=O)[C@H](CC(=O)O)NC(=O)[C@H](CC(C)C)NC(=O)[C@H](CC(C)C)NC(=O)[C@@H](NC(=O)[C@H](CO)NC(=O)[C@H](Cc1ccc(O)cc1)NC(=O)[C@H](CC(=O)O)NC(=O)[C@H](CO)NC(=O)[C@@H](NC(=O)[C@H](Cc1ccccc1)NC(=O)[C@@H](NC(=O)CNC(=O)[C@H](CCC(=O)O)NC(=O)C(C)(C)NC(=O)[C@@H](N)Cc1ccc(O)cc1)[C@@H](C)O)[C@@H](C)O)[C@@H](C)CC)[C@@H](C)CC)C(=O)N[C@@H](CCC(=O)O)C(=O)NCC(=O)NCC(=O)N1CCC[C@H]1C(=O)N[C@@H](CO)C(=O)N[C@@H](CO)C(=O)NCC(=O)N[C@@H](C)C(=O)N1CCC[C@H]1C(=O)N1CCC[C@H]1C(=O)N1CCC[C@H]1C(=O)N[C@@H](CO)C(N)=O [Example 111] | 0.308 | 0.141
2 | CC[C@H](C)[C@H](NC(=O)[C@H](CC(C)C)NC(=O)[C@H](Cc1ccc(O)cc1)NC(=O)C(C)(C)NC(=O)[C@@H](NC(=O)[C@H](Cc1ccccc1)NC(=O)[C@H](CCC(=O)O)NC(=O)C(C)(C)NC(=O)[C@H](CCC(N)=O)NC(=O)[C@H](C)NC(=O)[C@H](CCCCNC(=O)COCCOCCNC(=O)COCCOCCNC(=O)CC[C@H](NC(=O)CCCCCCCCCCCCCCCCCCC(=O)O)C(=O)O)NC(=O)[C@H](CCC(=O)O)NC(=O)[C@H](CC(=O)O)NC(=O)[C@H](CC(C)C)NC(=O)[C@](C)(CC(C)C)NC(=O)[C@@H](NC(=O)[C@H](CO)NC(=O)[C@H](Cc1cccnc1)NC(=O)[C@H](CC(=O)O)NC(=O)[C@H](CO)NC(=O)[C@@H](NC(=O)[C@](C)(Cc1ccccc1F)NC(=O)[C@@H](NC(=O)CNC(=O)[C@H](CCC(=O)O)NC(=O)C(C)(C)NC(=O)[C@@H](N)Cc1ccc(O)cc1)[C@@H](C)O)[C@@H](C)O)[C@@H](C)CC)[C@@H](C)CC)C(=O)N[C@@H](CCC(=O)O)C(=O)NCC(=O)NCC(=O)N1CCC[C@H]1C(=O)N[C@@H](CO)C(=O)N[C@@H](CO)C(=O)NCC(=O)N[C@@H](C)C(=O)N1CCC[C@H]1C(=O)N1CCC[C@H]1C(=O)N1CCC[C@H]1C(=O)N[C@@H](CO)C(N)=O [Example 188] (H-Y[Aib]EGT[αMePhe(2-F)]TSD[3Pal]SI[αMeL]LDEK([AEEA-AEEA-γGlu-C20 diacid])AQ[Aib]EFI[Aib]YLIEGGPSSGAPPPS-NH2) | 0.13 | 0.121
3 | CC[C@H](C)[C@H](NC(=O)[C@H](CC(C)C)NC(=O)[C@H](Cc1c[nH]cn1)NC(=O)[C@@H](CCC(=O)O)NC(=O)[C@@H](NC(=O)[C@H](Cc1ccccc1)NC(=O)[C@@H](NC(=O)C(C)(C)NC(=O)[C@H](CCC(N)=O)NC(=O)[C@H](C)NC(=O)[C@H](CCCCNC(=O)COCCOCCNC(=O)COCCOCCNC(=O)CC[C@H](NC(=O)CC[C@H](NC(=O)CCCCCCCCCCCCCCCCCCC(=O)O)C(=O)O)C(=O)O)NC(=O)[C@H](CCC(=O)O)NC(=O)[C@H](CC(=O)O)NC(=O)[C@H](CC(C)C)NC(=O)[C@](C)(CC(C)C)NC(=O)[C@@H](NC(=O)[C@H](CO)NC(=O)[C@H](Cc1c[nH]cn1)NC(=O)[C@H](CC(=O)O)NC(=O)[C@H](CO)NC(=O)[C@@H](NC(=O)[C@](C)(Cc1ccccc1F)NC(=O)[C@@H](NC(=O)CNC(=O)[C@H](CCC(=O)O)NC(=O)C(C)(C)NC(=O)[C@@H](N)Cc1ccc(O)cc1)[C@@H](C)O)[C@@H](C)O)[C@@H](C)CC)[C@@H](C)O)[C@@H](C)CC)C(=O)N[C@@H](CCC(=O)O)C(=O)NCC(=O)NCC(=O)N1CCC[C@H]1C(=O)N[C@@H](CO)C(=O)N[C@@H](CO)C(=O)NCC(N)=O [Example 162] (H-Y[Aib]EGT[αMePhe(2-F)]TSDHSI[αMeL]LDEK([AEEA-AEEA-γGlu-γGlu-C20 diacid])AQ[Aib]TFI[dE]HLIEGGPSSG-NH2; N-terminus assumed) | 36 | 4.56
